Data published in article PMC6274388, “Deoxyelephantopin from Elephantopus scaber Inhibits HCT116 Human Colorectal Carcinoma Cell Growth through Apoptosis and Cell Cycle Arrest” (Molecules, 2016).

Key:
[1] = tested on: HCT116 human colorectal carcinoma cells; assay: MTT cytotoxicity assay on HCT116 cells; assay type: cell-based; conditions: for IC50: Homo sapiens, HCT-116, HCT116, MTT; for cell viability: HCT116, 72 h, 0.39–25.0 µg/mL
Procedure: (§1) HCT116 human colorectal cancer cells and CCD841-CoN normal cells were obtained from the American Type Culture Collection (ATCC, Manassas, VA, USA). HCT116 cells and CCD841-CoN normal cells were cultured in RPMI-1640 and EMEM media respectively, with 10% v/v heat-inactivated fetal bovine serum (FBS), 100 µg/mL penicillin streptomycin and 50 µg/mL amphotericin B at 37 °C in 5% CO2 incubator.
(§2) To investigate the cytotoxic effect of each fraction and compounds, the MTT assay was utilized. Cells were seeded and exposed to different concentrations (0.38–25 µg/mL) of each fraction which was dissolved in DMSO. 5-fluorouracil (5-FU) was used as positive control. Untreated cells (negative control) were treated with vehicle dimethyl sulfoxide (DMSO). The final concentration of DMSO was below 0.5% v/v in all experiments. MTT (5 mg/mL) was then added to each well after treatment and incubated for another 4 h at 37 °C. Subsequently, the medium was discarded and replaced by 150 µL of DMSO to dissolve the formazan crystals followed by quantified at 570 nm and 650 nm as a background using a microplate reader (Asys UVM340, Biochrom, Eugendorf, Austria). The percentage of cell viability was calculated according to the following equation: Cell viability percentage (%) = (Absorbance of treated cells/absorbance of untreated cells) × 100%.

[2] = tested on: CCD841CoN normal colon cells; assay: MTT cytotoxicity assay on CCD841CoN normal colon cells; assay type: cell-based, human; conditions: for IC50: Homo sapiens, CCD-841CoN, MTT, 72 h
Procedure: as §1, §2

cyclin E2 = assay: Western blot, cyclin E2 in HCT116 cells; assay type: cell-based, human; conditions: HCT116, 0.75, 1.5 and 3.0 µg/mL, 24 h
Procedure: (§3) 1 × 10^6 HCT116 cells were plated in 60 mm^2 culture dishes and exposed to varying concentrations of DET (0.75, 1.5 and 3.0 µg/mL) for 24 h. The cells were collected, resuspended in cold RIPA buffer containing protease and phosphatase inhibitors and placed on ice for 5 min followed by centrifugation at 14,000× g for 15 min at 4 °C. 25 μg of total proteins was separated on the 12% SDS-PAGE gels and transferred onto nitrocellulose membranes, followed by the blocking using skim milk/bovine serum albumin for 1 h. Membranes were incubated with primary antibodies (cleaved PARP, cleaved caspase-3, p-p53, p21, CDK2, CDK4, CDK 6, cyclin D1, cyclin A2, cyclin B, cyclin E and GAPDH, Cell Signaling) at 4 °C overnight. Subsequently, the membranes were washed with TBST (0.05% Tween 20 in TBS) and incubated with corresponding anti-mouse/rabbit immunoglobulin G-horseradish peroxidase-conjugated secondary antibody (Cell Signaling, Danvers, MA, USA) at room temperature for 1 h. Then, the membranes were washed with TBST. The bands was detected by using enhanced chemiluminescence (ECL) detection kit (BioRad, Hercules, CA, USA) and visualized using gel documentation system. Protein bands were analyzed quantitatively and qualitatively with Vilber Lourmart.

CDK4 = assay: Western blot, CDK4 in HCT116 cells; assay type: cell-based, human; conditions: HCT116, 0.75, 1.5 and 3.0 µg/mL, 24 h
Procedure: as §3

cyclin A2 = assay: Western blot, cyclin A2 in HCT116 cells; assay type: cell-based, human; conditions: HCT116, 0.75, 1.5 and 3.0 µg/mL, 24 h
Procedure: as §3

HCT116 cells [3] = assay: Nuclear morphological changes, Hoechst 33342/PI staining; assay type: cell-based, human; conditions: HCT116, 0.75, 1.5 and 3.0 µg/mL, 24 h, dose-dependent
Procedure: 1 × 10^6 HCT116 cells were plated in 60 mm^2 culture dishes and treated with increasing concentrations of DET (0.75, 1.5 and 3.0 µg/mL) while negative control was treated with the vehicle DMSO for 24 h. Then, the cells were collected, washed with PBS and proceed to staining with Hoechst 33342 (40 µg/mL) and propidium iodide solution (10 µg/mL) at room temperature in the dark for 30 min. The cells were then examined by inverted fluorescence microscopy (DM1600B, Leica, Wetzlar, Germany).

cyclin B1 = assay: Western blot, cyclin B1 in HCT116 cells; assay type: cell-based, human; conditions: HCT116, 0.75, 1.5 and 3.0 µg/mL, 24 h
Procedure: as §3

phospho-p53 = assay: Western blot, phospho-p53 in HCT116 cells; assay type: cell-based, human; conditions: HCT116, 0.75, 1.5 and 3.0 µg/mL, 24 h
Procedure: as §3

cyclin D1 = assay: Western blot, cyclin D1 in HCT116 cells; assay type: cell-based, human; conditions: HCT116, 0.75, 1.5 and 3.0 µg/mL, 24 h
Procedure: as §3

cleaved PARP = assay: Western blot, cleaved PARP in HCT116 cells; assay type: cell-based, human; conditions: HCT116, 0.75, 1.5 and 3.0 µg/mL, 24 h
Procedure: as §3

CDK6 = assay: Western blot, CDK6 in HCT116 cells; assay type: cell-based, human; conditions: HCT116, 0.75, 1.5 and 3.0 µg/mL, 24 h
Procedure: as §3

CDK2 = assay: Western blot, CDK2 in HCT116 cells; assay type: cell-based, human; conditions: HCT116, 0.75, 1.5 and 3.0 µg/mL, 24 h
Procedure: as §3

HCT116 cells [4] = assay: Externalization of phosphatidylserine, Annexin V-FITC/PI staining, flow cytometry; assay type: cell-based, human; conditions: 24 h
Procedure: 1 × 10^6 HCT116 cells were plated in 60 mm^2 culture dishes and exposed to different concentrations of DET (0.75, 1.5 and 3.0 µg/mL) for 24 h. Subsequently, cells were washed with PBS, resuspended in 1× Annexin V binding buffer and stained with Annexin V-fluorescein-isothiocyanate (FITC) (BD) and propidium iodide (PI) in the dark at room temperature for 15 min. 1× binding buffer was then added into each tube. The apoptotic and necrotic cell populations were then examined by flow cytometry. The fluorescence intensity was detected in FL1-A (x-axis) and FL2-A channel (y-axis).

p21 = assay: Western blot, p21 in HCT116 cells; assay type: cell-based, human; conditions: HCT116, 0.75, 1.5 and 3.0 µg/mL, 24 h
Procedure: as §3

HCT116 cells [5] = assay: Cell cycle distribution by PI flow cytometry; assay type: cell-based, human; conditions: 24 h
Procedure: 1 × 10^6 HCT116 cells were plated in 60 mm^2 culture dishes and exposed to different concentrations of DET (0.75, 1.5 and 3.0 µg/mL) for 24 h. The cells were harvested and centrifuged at 300× g at room temperature. The cells were then resuspended in 1 mL of buffer solution followed by centrifugation and washing with buffer solution. Subsequently, 250 µL of Solution A (trypsin buffer) was added and incubated for 10 min, followed by addition of 100 µL of Solution B (trypsin inhibitor and RNase buffer) and incubated at room temperature for 10 min. 200 µL of cold PI solution was added, gently mixed and incubated on ice for 10 min in the dark. Finally, samples were assessed by using flow cytometry (BD, San Jose, CA, USA).

cleaved caspase-3 = assay: Western blot, cleaved caspase-3 in HCT116 cells; assay type: cell-based, human; conditions: HCT116, 0.75, 1.5 and 3.0 µg/mL, 24 h
Procedure: as §3

[6] = 72 h, value in brackets after the µg/mL value
[7] = CCD841-CoN normal cell line, mean ± S.E. (n = 9)

O=c1[nH]cc(F)c(=O)[nH]1 [5-Fluorouracil, 5-fluorouracil, reference compound]
IC50 ([1]; 72 h, mean ± S.E. (n = 9)): 0.73 ± 0.02 µg/mL | IC50 [1, 6]: 5 µM | IC50 [2, 7]: > 25 µg/mL

C=C(C)C(=O)O[C@H]1CC2=C[C@@H](C/C(C)=C/[C@H]3OC(=O)C(=C)[C@H]13)OC2=O [Deoxyelephantopin, deoxyelephantopin]
cyclin E2 protein expression (cyclin E2): significant downregulation | CDK4 protein expression (CDK4): significant downregulation | cell viability [1]: dose-dependent reduction of cell viability | IC50 ([1]; 24 h): 2.36 ± 0.02 µg/mL | IC50 ([1]; 48 h): 0.9 ± 0.02 µg/mL | IC50 ([1]; 72 h, mean ± S.E. (n = 9)): 0.73 ± 0.01 µg/mL | IC50 [1, 6]: 2.12 µM | cyclin A2 protein expression (cyclin A2): significant downregulation | apoptotic morphological changes (chromatin condensation, cell shrinkage, DNA fragmentation) (HCT116 cells [3]): apoptosis-inducing effect | cyclin B1 protein expression (cyclin B1): significant downregulation | phospho-p53 expression level (phospho-p53): upregulated | cyclin D1 protein expression (cyclin D1): significant downregulation | IC50 [2, 7]: 21.7 ± 0.92 µg/mL | IC50 ([2]; CCD841CoN normal cells, value in brackets after the µg/mL value): 60 µM | difference in cytotoxicity, CCD841CoN normal cells compared to HCT116 cells ([2]; IC50 at 72 h): 30 fold | cleaved PARP protein expression (cleaved PARP): dose-dependent upregulation | CDK6 protein expression (CDK6): remain constant | CDK2 protein expression (CDK2): significant downregulation | accumulation of apoptotic cells compared to untreated control (HCT116 cells [4]; HCT116, 0.75 μg/mL): significant accumulation of apoptotic cells | proportion of apoptotic cells (early and late apoptotic phases) (HCT116 cells [4]; HCT116, 3.0 µg/mL): 63.63% ± 2.03% | necrotic cell death (HCT116 cells [4]; HCT116, 0.75–3.0 µg/mL): did not significantly induce necrotic cell death | viability at 0.75 µg/mL (HCT116 cells [4]; Homo sapiens, HCT-116, HCT116, 0.75 μg/mL, representative plot, read-out: Q1-LL cells (annexin−/PI−, viable)): 74.8% | viability at 1.5 µg/mL (HCT116 cells [4]; Homo sapiens, HCT-116, HCT116, 1.50 μg/mL, representative plot, read-out: Q1-LL cells (annexin−/PI−, viable)): 59.8% | viability at 3 µg/mL (HCT116 cells [4]; Homo sapiens, HCT-116, HCT116, 3.00 μg/mL, representative plot, read-out: Q1-LL cells (annexin−/PI−, viable)): 34.1% | p21 expression level (p21): upregulated | cells in the S phase (HCT116 cells [5]; HCT116, 1.5 µg/mL): 28.17% ± 0.23% | cells in the S phase (HCT116 cells [5]; HCT116, 3.0 µg/mL): 29.25% ± 0.21% | cell cycle progression (HCT116 cells [5]; HCT116, 0.75, 1.5 and 3.0 µg/mL): cell cycle arrest at S phase | cleaved caspase-3 protein expression (cleaved caspase-3): dose-dependent upregulation

C=C(C)C(=O)O[C@H]1CC2=C[C@H](C/C(C)=C/[C@H]3OC(=O)C(=C)[C@H]13)OC2=O [Isodeoxyelephantopin, isodeoxyelephantopin]
cell viability [1]: dose-dependent reduction of cell viability | IC50 ([1]; 72 h, mean ± S.E. (n = 9)): 0.88 ± 0.02 µg/mL | IC50 [1, 6]: 2.56 µM
